Measured values reported in ChEMBL document CHEMBL3792388, “Ecdysones from Zoanthus spp. with inhibitory activity against dengue virus 2” (Bioorg Med Chem Lett, 2016).

Legend:
[1] = system: dengue virus type 2; assay: Antiviral activity against Dengue virus 2 DN454009A infected in human HuH7 cells assessed as inhibition of viral RNA level measured 72 hrs post infection by qRT-PCR method; format: functional, organism-based; settings: Huh-7, 72 h
[2] = Cytotoxicity against human HuH7 cells assessed as reduction in cell viability after 72 hrs by MTS assay; format: cell-based, Huh-7
[3] = Selectivity index, ratio of CC50 for human HuH7 cells to EC50 for Dengue virus 2 DN454009A infected in human HuH7 cells; format: toxicity, cell-based, Huh-7; settings: read-out: Ratio CC50/EC50
[4] = system: dengue virus type 1; assay: Antiviral activity against Dengue virus 1 DN8700828 infected in human HuH7 cells assessed as inhibition of viral RNA level measured 72 hrs post infection by qRT-PCR method; format: functional, organism-based; settings: DN8700828, Huh-7, 72 h
[5] = system: dengue virus type 3; assay: Antiviral activity against Dengue virus 3 DN8700829A infected in human HuH7 cells assessed as inhibition of viral RNA level measured 72 hrs post infection by qRT-PCR method; format: functional, organism-based; settings: Huh-7, 72 h
[6] = system: dengue virus type 4; assay: Antiviral activity against Dengue virus 4 S9201818 infected in human HuH7 cells assessed as inhibition of viral RNA level measured 72 hrs post infection by qRT-PCR method; format: functional, organism-based; settings: S9201818, Huh-7, 72 h

## CC(C)CC[C@@H](O)[C@](C)(O)[C@H]1CC[C@@]2(O)C3=CC(=O)[C@@H]4C[C@@H](O)[C@@H](O)C[C@]4(C)[C@H]3CC[C@]12C [PONASTERONE A]
[1]
  EC50: > 100 µM
[2]
  CC50 at 72 h: > 700 µM

## C[C@@]1(O)[C@H](O)[C@@H](CO)O[C@H]1n1ccc(N)nc1=O
[1]
  EC50: 11.2 µM
[2]
  CC50 at 72 h: 94.8 µM
[3]
  selectivity ratio: > 8.5

## CC(=O)OC(C)(C)CC[C@@H](O)[C@](C)(O)[C@H]1CC[C@@]2(O)C3=CC(=O)[C@@H]4C[C@@H](O)[C@@H](O)C[C@]4(C)[C@H]3[C@H](O)C[C@]12C
[1]
  EC50: 19.6 µM
[2]
  CC50 at 72 h: > 700 µM
[3]
  selectivity ratio: > 36.7

## CC(C)(O)CC[C@@H](O)[C@](C)(O)[C@H]1CC[C@@]2(O)C3=CC(=O)[C@@H]4C[C@@H](O)CC[C@]4(C)[C@H]3CC[C@]12C
[1]
  EC50: > 100 µM
[2]
  CC50 at 72 h: > 700 µM

## C=C(C[C@@H](O)[C@](C)(O)[C@H]1CC[C@@]2(O)C3=CC(=O)[C@@H]4C[C@@H](O)[C@@H](O)C[C@]4(C)[C@H]3CC[C@]12C)C(C)(C)O
[1]
  EC50: > 100 µM
[2]
  CC50 at 72 h: > 700 µM

## C[C@H]([C@H](O)CCC(C)(C)O)[C@H]1CC[C@@]2(O)C3=CC(=O)[C@@H]4C[C@@H](O)[C@@H](O)C[C@]4(C)[C@H]3CC[C@]12C [ECDYSONE]
[1]
  EC50: 54.3 µM
[2]
  CC50 at 72 h: > 700 µM
[3]
  selectivity ratio: > 12.9

## CC(=O)O[C@@H]1C[C@H]2C(=O)C=C3[C@H](CC[C@]4(C)[C@@H]([C@@](C)(O)[C@H](O)CCC(C)(C)O)CC[C@@]34O)[C@@]2(C)C[C@@H]1O
[1]
  EC50: 87.3 µM
[2]
  CC50 at 72 h: > 700 µM
[3]
  selectivity ratio: > 8

## C[C@H](O)[C@H]1CC[C@@]2(O)C3=CC(=O)[C@@H]4C[C@@H](O)[C@@H](O)C[C@]4(C)[C@H]3CC[C@]12C
[1]
  EC50: > 100 µM
[2]
  CC50 at 72 h: > 700 µM

## CC(C)CC[C@@H](O)[C@](C)(O)[C@H]1CC[C@@]2(O)C3=CC(=O)[C@@H]4C[C@@H](O)[C@@H](O)C[C@]4(C)[C@H]3[C@H](O)C[C@]12C
[1]
  EC50: 10.1 µM
[4]
  EC50: 15.7 µM
[5]
  EC50: 9.48 µM
[6]
  EC50: 12.2 µM
[2]
  CC50 at 72 h: > 700 µM
[3]
  selectivity ratio: > 69.7

## CC(C)(O)CC[C@@H](O)[C@](C)(O)[C@H]1CC[C@@]2(O)C3=CC(=O)[C@@H]4C[C@@H](O)[C@@H](O)C[C@]4(C)[C@H]3CC[C@]12C [20-HYDROXYECDYSONE]
[1]
  EC50: 53.6 µM
[2]
  CC50 at 72 h: > 700 µM
[3]
  selectivity ratio: > 13.1

## CC(=O)OC(C)(C)CC[C@@H](O)[C@](C)(O)[C@H]1CC[C@@]2(O)C3=CC(=O)[C@@H]4C[C@@H](O)[C@@H](O)C[C@]4(C)[C@H]3CC[C@]12C
[1]
  EC50: 39.8 µM
[2]
  CC50 at 72 h: > 700 µM
[3]
  selectivity ratio: > 17.6

## CC(C)(O)CC[C@@H](O)[C@](C)(O)[C@H]1CC[C@@]2(O)C3=CC(=O)[C@@H]4C[C@@H](O)[C@@H](O)C[C@]4(C)[C@H]3[C@H](O)C[C@]12C [TURKESTERONE]
[1]
  EC50: 38.1 µM
[2]
  CC50 at 72 h: > 700 µM
[3]
  selectivity ratio: > 18.3

## CC(CO)CC[C@@H](O)[C@](C)(O)[C@H]1CC[C@@]2(O)C3=CC(=O)[C@@H]4C[C@@H](O)[C@@H](O)C[C@]4(C)[C@H]3CC[C@]12C (some centres not stated) [INOKOSTERONE]
[1]
  EC50: > 100 µM
[2]
  CC50 at 72 h: > 700 µM
